From ChEMBL document CHEMBL3124911, “Chikungunya virus: emerging targets and new opportunities for medicinal chemistry” (J Med Chem, 2014)
≈ marks a conversion by molar mass, not a printed value.

Assays:
[1] = system: Chikungunya virus; assay: Antiviral activity against Chikungunya virus by cell-based assay; assay type: functional
[2] = system: Chikungunya virus; assay: Antiviral activity against Chikungunya virus infected in BHK21 cells assessed as inhibition of viral replication after 24 hrs; assay type: functional, cell-based; conditions: BHK-21, 24 h
[3] = system: Chikungunya virus; assay: Antiviral activity against Chikungunya virus; assay type: functional
[4] = Selectivity index, ratio of CC50 for African green monkey Vero cells to EC50 for Chikungunya virus; assay type: toxicity, cell-based; conditions: read-out: Ratio CC50/EC50
[5] = system: Chikungunya virus; assay: Antiviral activity against Chikungunya virus infected in African green monkey Vero cells assessed as inhibition of virus-induced cytopathic effect; assay type: functional, cell-based
[6] = Inhibition of Chikungunya virus IMPDH

## C=C(C)[C@@H]1CC[C@]2(C)CC[C@]3(C)[C@H](CC[C@@H]4[C@@]5(C)CCC(=O)C(C)(C)[C@@H]5CC[C@]43C)[C@@H]12 [LUPENONE]
[1]
  EC50: 77 µM

## COC(=O)C[C@](O)(CCC(C)(C)O)C(=O)O[C@@H]1C(OC)=C[C@]23CCCN2CCc2cc4c(cc2[C@H]13)OCO4 [HARRINGTONINE]
[2]
  EC50: 0.24 µM

## NC(=O)c1ncn([C@@H]2O[C@H](CO)[C@@H](O)[C@H]2O)n1 [RIBAVIRIN]
[3]
  EC50: 83.3 µg/mL

## CCOC(=O)c1c(C[S+]([O-])c2ccccc2)n(C)c2cc(Br)c(O)c(CN(C)C)c12 (stereo unspecified)
[1]
  IC50: 54.5 µM

## CCOc1ccc(/C=N/NC(=O)C2CC2c2ccc(C(C)(C)C)cc2)cc1OCC (stereo unspecified)
[4]
  selectivity ratio: 14
[5]
  EC50: 5 µM

## C=C[C@H]1CN2CC[C@H]1C[C@H]2[C@H](O)c1ccnc2ccc(OC)cc12 [QUININE]
[3]
  IC50: 0.1 µg/mL (≈ 0.308 µM)

## CCOc1ccc(/C=N/NC(=O)/C=C/c2ccc(C(C)(C)C)cc2)cc1OCC
[4]
  selectivity ratio: 32
[5]
  EC50: 3.2 µM

## CCN(CC)CCCC(C)Nc1ccnc2cc(Cl)ccc12 (stereo unspecified) [CHLOROQUINE]
[3]
  IC50: 1.1 µg/mL (≈ 3.44 µM)

## CC1(C)CC[C@]2(C)CC[C@]3(C)C(=CC[C@@H]4[C@@]5(C)CCC(=O)C(C)(C)[C@@H]5CC[C@]43C)[C@@H]2C1
[1]
  EC50: 86 µM

## CCOC(=O)c1c(CS(=O)(=O)c2ccccc2)n(C)c2cc(Br)c(O)c(CN(C)C)c12
[1]
  IC50: 56.4 µM

## O=c1cnn([C@@H]2O[C@H](CO)[C@@H](O)[C@H]2O)c(=O)[nH]1 [6-AZAURIDINE]
[3]
  EC50: 0.2 µg/mL

## CCOC(=O)c1c(CSc2ccccc2)n(C)c2cc(Br)c(O)c(CN(C)C)c12 [UMIFENOVIR]
[1]
  IC50: 12.2 µM

## C=C(C)[C@@]1(O)[C@@H]2OC3(c4ccccc4)O[C@H]1[C@@H](C)[C@]1(O3)C3=CC(=C(Cl)Cl)[C@H](OC(=O)c4ccccc4)[C@@]3(O)[C@H](OC(C)=O)[C@@]3(COC(C)=O)O[C@H]3[C@@H]21
[3]
  EC50: 1.5 µM

## COc1c(C)c2c(c(O)c1C/C=C(\C)CCC(=O)O)C(=O)OC2 [MYCOPHENOLIC ACID]
[6]
  IC50: 0.2 µM
